Tested on: B2R
Test: Endosomal BRET assay of agonist-mediated B2R internalization (B2R-RlucII / Endo-rGFP)
Format: cell-based, human
Text: We performed a HT campaign in HEK293 cells using the bystander endosomal BRET sensor, which consists of a Renilla luciferase (RlucII)-tagged AT1R and an acceptor renilla GFP (rGFP) anchored to endosomes through an Endofin-FYVE (Endo-rGFP) domain[12]. AngII-mediated trafficking of AT1R to endosomes was screened against commercial libraries of ~115,000 small molecules (Fig. 1a and Supplementary Data 1). Because our assay is based on luminescence and fluorescence, we excluded 6610 compounds that quenched more than 50% of the luciferase or GFP signals. After excluding 5 AT1R antagonists, we conserved hit compounds blocking by more than 40%, as well as those potentiating by more than 100% receptor internalization. From this collection of 943 compounds, a second validation on AT1R internalization was performed using the same BRET assay, as well as on the agonist-mediated B2R internalization, this time using B2R-RlucII and Endo-rGFP. Only compounds that were revalidated on AT1R and affected B2R endocytosis were kept, which included forty hits (20 potentiators and 20 inhibitors) (Fig. 1b and Supplementary Data 2). We focused on inhibitors that were commercially available at the beginning of the project and tested their cell toxicity by microscopy, looking at cells expressing B2R tagged with YFP, which highlights cell contours and potential morphological changes, such as rounding up of cells following treatment with 50 μM of the compounds that may have indicated cell death. None of the inhibitors tested caused abnormal cell morphological changes when cells were treated with compounds as compared to DMSO-treated cells. Inhibitors were also assessed in terms of structure novelty, derivatization potential, and commercial availability of analogs (within 95–98% similarity from Tanimoto metric, Sci-Finder, https://scifinder-n.cas.org), for structure-activity relationship studies (SAR). They were scored 1–5, from best to worst. We excluded compounds with potential nucleophilic reactivity (e.g., Michael addition: compounds 7, 26, and 27), those reported to have biological activities (compounds 8, 20, 25, 30, and 35) and/or showing autofluorescence (compound 26). Compound 19 ranked high, but only had one other molecule with a similar structure available. Although other molecules could be interesting in their own rights as endocytosis inhibitors (e.g., compounds 1, 9, 11, 12, 13, 24, 31, and 37), we focused on compound 21 (Fig. 1c) because not only did it rank high in our analysis, but it was also the only compound with substantially more similar analogs commercially available at the time of these investigations. In the screen and the follow-up validation assay, 21 inhibited more than 50% AT1R internalization and more than 65% B2R internalization (Supplementary Data 2). […] Because β-arrestins are critically involved in GPCR endocytosis and trafficking in cells, we assessed 21’s effects on β-arrestins’ recruitment to AT1R and B2R at the PM using a BRET assay, as well as their trafficking into endosomes by microscopy.
HEK293SL cells were seeded at a density of 7.5 × 10^5 cells per 100-mm dish and 24 h later, transiently transfected as such. For receptor internalization experiments, cells were transfected with 0.12 μg AT1R-RlucII, B2R-RlucII, or β2AR-RlucII and 0.48 μg of either rGFP-CAAX (to assess removal from the PM) or rGFP-FYVE (to assess accumulation in the endosomes). For β-arrestin recruitment assays, cells were transfected with 0.48 μg of receptor-YFP along with 0.12 μg of β-arrestin-RlucII. For β-arrestin/AP-2 binding experiments, cells were transfected with 1 μg Flag-AT1R, 1 μg β2-Adaptin-YFP, and 0.12 μg β-arrestin2-RlucII. For G protein activation, cells were transfected with 3 μg of sp-Flag-AT1R along with either 4.5 μg of the Gαq-polycistronic BRET sensor or 0.24 μg of the Gαi3-RlucII and 0.6 μg of GFP10-Gγ2 and Gβ1 sensors or 0.12 μg PKN-RBD-RlucII and 0.48 μg of rGFP-CAAX. […]

Structure (SMILES): CC(C)C(=O)N1CCN(c2ccc(NC(=O)c3cc4ccccc4o3)cc2Cl)CC1 [Compound 21]
- IC50 (Homo sapiens, BK, into endosomes, read-out: IC50 for inhibition of B2R internalization): 11 µM
- B2R internalization into endosomes, ligand-promoted BRET (Mean) (Log [Comp21] (M) -4.3): 20.7288 percent compared to DMSO
- B2R internalization into endosomes, ligand-promoted BRET (Mean) (Log [Comp21] (M) -4.6): 30.2526 percent compared to DMSO
- B2R internalization into endosomes, ligand-promoted BRET (Mean) (Log [Comp21] (M) -5): 61.9767 percent compared to DMSO
- B2R internalization into endosomes, ligand-promoted BRET (Mean) (Log [Comp21] (M) -5.3): 83.8073 percent compared to DMSO
- B2R internalization into endosomes, ligand-promoted BRET (Mean) (Log [Comp 21] (M) -6): 104.977 percent compared to DMSO
- B2R internalization into endosomes, ligand-promoted BRET (Mean) (Log [Comp21] (M) -6.3): 107.04 percent compared to DMSO
- B2R internalization into endosomes, ligand-promoted BRET (Mean) (Log [Comp 21] (M) -7): 102.555 percent compared to DMSO
- inhibition of B2R internalization (follow-up validation assay): more than 65%
- B2R Inhibition (%DMSO) (one experiment, negative = potentiation): 66.5725 %DMSO
